Data: publication PMC7181245, “Antiestrogenic Activity and Possible Mode of Action of Certain New Nonsteroidal Coumarin-4-acetamides” (Molecules, 2020)
Read-outs that look alike come from different tables or passages of the source.

Legend:
[1] = system: MDA-MB-231 (triple-negative breast cancer cell line, TNBC); assay: MTT cytotoxicity assay, MDA-MB-231 cell line
Method: (§1) The cytotoxic activity of the synthesized compounds IIIa–h was evaluated in vitro against the human breast adenocarcinoma MCF7 (ER^+ breast cancer cell line) and the MDA-MB-231 (triple-negative breast cancer cell line, TNBC), using camptothecin as a pyranone-bearing reference standard.
(§2) The cytotoxicity of compounds Ia,b, IIa,b, and IIIa–h against the MCF-7 cell line (ER+ breast cancer cell line) and MDA-MB-231 (triple-negative breast cancer cell line, TNBC) was determined using camptothecin as a pyranone-bearing reference standard.

[2] = system: MCF-7 cell line (ER+ breast cancer cell line); assay: MTT cytotoxicity assay, MCF-7 cell line; details: for IC50: Homo sapiens, MCF7, read-out: IC50 (μM) ± S.E.M MCF-7 (cytotoxicity)
Method: as §1, §2

[3] = molecular target: T1, aromatase (Homo sapiens, UniProt P11511); assay: In vitro aromatase inhibition (sandwich enzyme immunoassay); details: for IC50: IC50 (μM) ± S.E.M. (aromatase inhibition activity)
T1 sequence (P11511 1-503): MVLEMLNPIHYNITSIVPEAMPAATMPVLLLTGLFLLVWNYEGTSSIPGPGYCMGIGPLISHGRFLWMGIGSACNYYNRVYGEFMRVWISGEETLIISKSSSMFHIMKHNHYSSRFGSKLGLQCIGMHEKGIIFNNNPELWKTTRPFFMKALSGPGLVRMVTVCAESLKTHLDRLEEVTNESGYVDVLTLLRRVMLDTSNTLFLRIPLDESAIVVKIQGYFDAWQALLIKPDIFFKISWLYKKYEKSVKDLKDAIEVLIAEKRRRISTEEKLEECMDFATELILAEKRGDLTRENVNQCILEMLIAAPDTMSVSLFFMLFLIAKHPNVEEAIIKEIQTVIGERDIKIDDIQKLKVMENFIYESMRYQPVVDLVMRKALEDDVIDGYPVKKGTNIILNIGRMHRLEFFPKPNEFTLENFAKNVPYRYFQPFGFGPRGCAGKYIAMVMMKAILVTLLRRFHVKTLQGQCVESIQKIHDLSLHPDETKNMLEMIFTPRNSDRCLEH
Source text: Sandwich enzyme immunoassay was adopted for aromatase inhibition assessment [38].

[4] = system: estrogen-dependent human breast cancer MCF-7 cell proliferation induced by 17-β-estradiol; assay: In vitro antiestrogenic activity: MCF-7 cell proliferation assay (MTT) in the presence of 17-β-estradiol; format: cell-based; details: inhibition of MCF-7 cell proliferation induced by 17-β-estradiol, read-out: IC50 (μM) ± S.E.M. MCF-7 (in vitro antiestrogenic activity)
Method: The in vitro antiestrogenic activity of the selected target compounds IIIa,b, IIId, and IIIf,g was studied through an estrogen-dependent human breast cancer MCF-7 cell proliferation assay in the presence of 17-β-estradiol. The ability of the tested compounds to inhibit cell proliferation induced by 17-β-estradiol was determined (Table 3 and Figure 4).
The antiestrogenic activity of the test compounds was examined by performing a 3-(4,5-dimethylthiazol-2-yl)-2,5-diphenyl tetrazolium bromide (MTT) assay of the MCF-7 cell line. In this experiment, MCF-7 cells were treated with 17β-estradiol (+ve cell proliferation compound). The effect of various concentrations of the tested compounds on cell proliferation in the presence of 17β-estradiol was measured.

[5] = system: MCF-7; parameters: method as in PMID 9391160, PMID 15177442; details: cited from earlier work
[6] = Homo sapiens, MDA-MB-231, read-out: IC50 (μM) ± S.E.M MDA-MB-231 (cytotoxicity), MTT assay, MDA-MB-231 cells
[7] = ratio of IC50 values vs camptothecin

`CC[C@@]1(O)C(=O)OCc2c1cc1n(c2=O)Cc2cc3ccccc3nc2-1` [Camptothecin, reference compound] showed an IC50 [1, 6] of 19.2 ± 1.14 µM and an IC50 [2] of 4.41 ± 0.28 µM.
`COc1ccc2oc(=O)cc(CC(=O)N3CCCCC3)c2c1` [IIIa, 6-Methoxy-4-(2-oxo-2-(piperidin-1-yl)ethyl)-2H-chromen-2-one] gave an IC50 [3] of 22.5 ± 3.4 µM, an IC50 ([4]; Homo sapiens, MCF7) of 62 ± 4.02 µM and an IC50 [1, 6] of 38.2 ± 1.52 µM. It also gave an IC50 [2] of 1.82 ± 0.03 µM and a melting point of 167 to 168 °C.
Molecule `COc1ccc2c(CC(=O)N3CCCCC3)cc(=O)oc2c1` [IIIb, 7-Methoxy-4-(2-oxo-2-(piperidin-1-yl)ethyl)-2H-chromen-2-one] has an IC50 [3] of 89.1 ± 6.2 µM, an IC50 ([4]; Homo sapiens, MCF7) of 29.5 ± 3.25 µM and an IC50 [1, 6] of 12.9 ± 1.17 µM. For the same molecule, the IC50 [2] was 0.32 ± 0.04 µM, the “potency relative to the reference standard camptothecin, MCF-7” value [2, 7] was “about 14 fold” and the melting point was 135 to 136 °C.
`COc1ccc2oc(=O)cc(CC(=O)Nc3ccccc3)c2c1` [IIIc, 2-(6-Methoxy-2-oxo-2H-chromen-4-yl)-N-phenylacetamide] gave an IC50 [3] of 1100 ± 52.4 µM, an IC50 [1, 6] of 4.6 ± 0.32 µM and an IC50 [2] of 10.9 ± 0.99 µM. For the same molecule, the melting point was 219 to 220 °C.
`COc1ccc2oc(=O)cc(CC(=O)Nc3ccc(Br)cc3)c2c1` [IIId, N-(4-Bromophenyl)-2-(6-methoxy-2-oxo-2H-chromen-4-yl)acetamide] showed an IC50 [3] of 69.9 ± 3.91 µM, an IC50 ([4]; Homo sapiens, MCF7) of 214 ± 12.1 µM and an IC50 [1, 6] of 22.8 ± 1.54 µM. It also gave an IC50 [2] of 2.8 ± 0.04 µM and a melting point of 202 to 203 °C.
For `COc1ccc2oc(=O)cc(CC(=O)Nc3ccc(OC)c(O)c3)c2c1` [IIIe, N-(3-Hydroxy-4-methoxyphenyl)-2-(6-methoxy-2-oxo-2H-chromen-4-yl)acetamide], the “aromatase inhibition activity (in words)” value [3] was “moderate inhibitory activity”, the IC50 [3] was 17.4 µM and the IC50 [1, 6] was 2.1 µM. For the same molecule, the IC50 ([1]; human) was 2.14 ± 0.06 µM, the IC50 [2] was 15.5 ± 1.24 µM and the melting point was 173 to 174 °C.
Molecule `COc1ccc2c(CC(=O)Nc3ccccc3)cc(=O)oc2c1` [IIIf, 2-(7-Methoxy-2-oxo-2H-chromen-4-yl)-N-phenylacetamide] has an IC50 [3] of 332 ± 18.2 µM, an IC50 ([4]; Homo sapiens, MCF7) of 99.6 ± 6.39 µM and an IC50 [1, 6] of 6.9 µM. The IC50 ([1]; human) was 6.94 ± 0.41 µM, the IC50 [2] was 5.69 ± 0.08 µM and the melting point was 217 to 218 °C.
For `COc1ccc2c(CC(=O)Nc3ccc(Br)cc3)cc(=O)oc2c1` [IIIg, N-(4-Bromophenyl)-2-(7-methoxy-2-oxo-2H-chromen-4-yl)acetamide], the IC50 [3] was 27.1 ± 1.38 µM, the IC50 ([4]; Homo sapiens, MCF7) was 64.4 ± 4.12 µM and the IC50 [1, 6] was 90.8 ± 3.84 µM. For the same molecule, the IC50 [2] was 0.72 ± 0.02 µM and the melting point was 212 to 213 °C.
`COc1ccc2c(CC(=O)Nc3ccc(OC)c(O)c3)cc(=O)oc2c1` [IIIh, N-(3-Hydroxy-4-methoxyphenyl)-2-(7-methoxy-2-oxo-2H-chromen-4-yl)acetamide] showed an IC50 [1, 6] of 14.1 ± 0.61 µM, an IC50 [2] of 5100 ± 241 µM and a melting point of 188 to 189 °C.
`COc1ccc2oc(=O)cc(CC(=O)O)c2c1` [IIa, (6-Methoxy-2-oxo-2H-chromen-4-yl)acetic acid] showed an IC50 [3] of 32.2 ± 2.39 µM, an IC50 [1, 6] of 80.2 ± 4.23 µM and an IC50 [2] of 1 ± 0.03 µM. It also gave a melting point of 178 to 179 °C.
In the case of `COc1ccc2c(CC(=O)O)cc(=O)oc2c1` [IIb, (7-methoxy-2-oxo-2H-chromen-4-yl)acetic acid], the IC50 [1, 6] is reported as 216 ± 13.2 µM and the IC50 [2] is reported as 8.08 ± 0.25 µM.
Work on `COC(=O)Cc1cc(=O)oc2ccc(OC)cc12` [Ia, Methyl (6-methoxy-2-oxo-2H-chromen-4-yl)acetate] yielded an IC50 [1, 6] of 47.5 ± 2.51 µM, an IC50 [2] of 13.9 ± 1.15 µM and a melting point of 153 to 154 °C.
In the case of `COC(=O)Cc1cc(=O)oc2cc(OC)ccc12` [Ib, Methyl (7-methoxy-2-oxo-2H-chromen-4-yl)acetate], the IC50 [3] is reported as 14.5 ± 1.32 µM, the IC50 [1, 6] is reported as 1 ± 0.04 µM and the “potency relative to the reference standard camptothecin, MDA-MB-231” value [1, 7] is reported as “about 19 times”. It also gave an IC50 [2] of 1.44 ± 0.02 µM.
For `CC(C)COC(=O)c1ccccc1C(=O)O` [Monoisobutyl phthalate (MIBP), Monoisobutyl phthalate, reference compound], the IC50 [4] was 46.4 ± 3.14 µM.
For `O=c1oc2cc(O)ccc2c(Cc2ccc(OCCN3CCCCC3)cc2)c1-c1ccccc1` [SP500263], the “agonist activity in the MCF-7 proliferation assay” value [5] is given as “undesirable agonist activity”.
